The subject of experiment [1] is lymphoblasts. Kind of experiment: Rate of drop in membrane potential (repolarization rate) in lymphoblasts. It counts as cell-based, human. The procedure:
As the Na^+K^+ ATPase density on the cell surface increases, the intracellular sodium concentration decreases and the membrane potential begins to drop as a result of repolarization of the cell membrane. The rate of drop in membrane potential (repolarization rate) in affected cells incubated for 30 minutes in both K^+-free buffer and in K^+-containing (regular) buffer in the presence or absence of 30 μM ethacrynate was compared to that of unaffected cells incubated for 30 minutes in both K^+-free buffer and in K^+-containing buffer in the presence or absence of 30 μM ethacrynate. The difference in the median values between the two groups was greater than would be expected by chance.
The rate of drop in membrane potential after incubation with the protein kinase C (PKC) activator, phorbol 12-myristate 13-acetate (PMA), was compared in affected cells to that of unaffected cells. The membrane potential of these cells was determined by measuring the fluorescence intensity as described above. The rate of drop in membrane potential (repolarization rate) in affected cells was compared to that in unaffected cells in K^+-free buffer in the presence or absence of 2 μM PMA. The difference in the median values between the two groups was greater than would be expected by chance.
The rate of drop in membrane potential (repolarization rate) in affected cells incubated for 30 minutes in both K^+-free buffer and in K^+-containing (regular) buffer in the presence or absence of 2 μM PMA was compared to that of unaffected cells incubated for 30 minutes in both K^+-free buffer and in K^+-containing buffer in the presence or absence of 2 μM PMA. The difference in the median values between the two groups was greater than would be expected by chance.

For experiment [2], the system named is lymphoblasts. Kind of experiment: Membrane potential of lymphoblasts by DiOC6(3) fluorescence intensity ratio. It counts as cell-based, human. The procedure: Three groups of immortalized lymphoblast samples were obtained from the Human Genetic Mutant Cell Repository (Coriell Institute for Medical Research, Camden N.J.). The samples are shown in Table 4 below and included six from affected (bipolar I disorder) patients (A1 through A6), six from their siblings (S1 through S6), and six from unrelated normal control subjects matched by age and sex (N1 through N6).
The cells were grown at 37° C. in RPMI 1640 culture medium (GIBCO, Life Technologies, Gaithersburg, Md., USA) with 15% fetal bovine serum and 1% penicillin.
The membrane potentials of the bipolar I cells shown in Table 4 above (as well as in all other experiments, except where indicated) were measured using the following protocol. The cells cultured in the media described above were centrifuged at 210 g for 5 minutes at room temperature, then suspended in 3 ml of K^+-containing stock buffer (5 mM KCl, 4 mM NaHCO3, 5 mM HEPES, 134 mM NaCl, 2.3 mM CaCl2, and 5 mM glucose). The cells were counted and the desired number of cells were again suspended in the K^+-containing buffer. The membrane potentials were measured using 3,3′-dihexyloxacarbocyanine iodide DiOC6(3), a cell-permeant, voltage sensitive, green-fluorescent dye (Molecular Probes Inc. Eugene, Oreg. USA). The cells were preincubated for 30 minutes before measurements. The preincubated cell suspension was centrifuged at 210 g for 5 minutes and the cells were resuspended in the K^+-containing buffer without the dye in the buffer.
A fluorescence spectrometer (F2500 Hitachi, Japan) was used for the measurement of the membrane potential by measuring the fluorescence intensity of DiOC6(3), which is directly proportional to the membrane potential. The intensity of fluorescence was measured at an excitation wavelength of 488 nm and an output wavelength of 540 nm. The time of recordings varied from 10 seconds to 1500 seconds depending upon the experiment.
Membrane potential was expressed according to fluorescence intensity using the following equation: I=CV, wherein I is the fluorescence intensity of a lipophilic fluorescent dye DiOC6(3) being only one example of such a dye); V is the voltage or membrane potential; and C is a constant that can vary depending on a number of factors such as, but not limited to, temperature, lamp intensity, number of cells, concentration of the fluorescent dye, incubation time, and lipid composition of cells used. By using the ratio of the fluorescence intensity (I1) of one sample of cells to the fluorescence intensity (I2) of another sample of cells, the constant (C) could be canceled out
Membrane potentials were also measured in K^+-free buffer to enable comparison with membrane potentials in K^+-containing buffer. As used herein, K^+-free buffer contains all of the components of the K^+-containing buffer, except potassium (4 mM NaHCO3, 5 mM HEPES, 134 mM NaCl, 2.3 mM CaCl2, and 5 mM glucose). Constant volumes of samples of each cell line were added to an equal volume of buffer containing an equal volume of dye. […] Each variable was constant for each cell line in both buffers, so that the ratio of intensities was a true ratio-metric measurement.
The relative fluorescence intensity ratio of cells in K^+-free buffer was compared to that of cells in K^+-containing buffer with or without 30 μM ethacrynate. […] The membrane potential of these cells was determined by measuring the fluorescence intensity as described above. […]

Experiment [3] concerns whole blood cells. Kind of experiment: Open clinical trial: fluorescence intensity ratio of whole blood cells. It counts as cell-based, human. The method, then: A pilot clinical trial was conducted using blood samples from 12 clinically affected bipolar patients and 11 unaffected controls. The medical histories of the patients were known to the investigator measuring the membrane potentials; therefore, the trials described in this example were open trials. The patients ranged from 19 years to 77 years in age, and included males and females from different ethnic groups. Similarly, the controls ranged from 25 to 67 including males and females from different ethnic groups. The patients were all hospitalized following a confirmed manic episode. During the drawing of samples, all patients were on mood stabilizers, either lithium or valproate.
Because the volume of blood required to collect enough lymphocytes was beyond that permitted by the current protocol, the membrane potential of whole blood cells was determined. The volume of whole blood required was approximately 1 ml. The blood samples were kept on ice until they were stored at 4° C. All of the samples were tested within 48 hours.
Whole blood samples drawn from patients and controls were suspended in K^+-containing buffer without ethacrynate and in K^+-free buffer with 30 μM ethacrynate or with 100 mM sorbitol. The fluorescent dye DiOC6(3) was added to both suspensions and incubated for 30 minutes. The cell suspensions loaded with the dye were centrifuged, drained and resuspended in the respective buffers. The fluorescence intensity was measured for 10 seconds and the ratio of the intensity in K^+-free buffer to the intensity in K^+-containing buffer was calculated.

Experiment [4] deals with whole blood cells. Nature of the experiment: Blind clinical trial and individual patient diagnosis: fluorescence intensity ratio of whole blood cells. The note with it: 30 μM ethacrynate. It counts as cell-based, human. The procedure: A clinical trial was conducted using blood samples from the following four groups: schizophrenic, bipolar, and unipolar patients, as well as controls. The medical histories of these patients were unknown to the investigator measuring the membrane potentials; therefore, the trials described in this example were blind trials. The sample size was determined to be 5 with a power of 0.9, an alpha of 0.05, a difference in mean of 0.08, and a standard deviation of 0.03. However, more than 10 samples for each category were tested for a total sample size of 59. If a patient matched a diagnosis, structured clinical interviews according to DSM-IV guidelines were performed.
Whole blood samples drawn from patients and controls were suspended both in K^+-containing buffer and in K^+-free buffer with 30 μM ethacrynate or with 100 μM sorbitol. The fluorescent dye DiOC6(3) was added to both suspensions and incubated for 30 minutes. The cell suspensions loaded with the dye were centrifuged, drained and resuspended in the respective buffers. The fluorescence intensity was measured for 10 seconds and the ratio of the intensity in K^+-free buffer to the intensity in K^+-containing buffer was calculated.
An individual patient's cell sample was tested as described herein and six to twelve ratios were calculated. These values were treated as a group and compared with a normal control group (negative control) and a bipolar group (positive control).

The conditions of experiment [5]: antibiotic ionophore; cited from earlier work.
Where [6] appears, read: Bipolars, 30 μM ethacrynate, whole blood.
Where [7] appears, read: Controls, 30 μM ethacrynate, whole blood.
Where [8] appears, read: blind trial, Bipolars, whole blood.
Where [9] appears, read: blind trial, Controls, whole blood.
The mark [10] stands for this setting: blind trial, Schizophr., whole blood.
Setting [11] is: blind trial, Unipolars, whole blood.

For `CCCCCCCCCCCCCC(=O)O[C@@H]1[C@@H](C)[C@@]2(O)[C@@H](C=C(CO)C[C@]3(O)C(=O)C(C)=C[C@@H]23)[C@@H]2C(C)(C)[C@]12OC(C)=O` [PMA, phorbol 12-myristate 13-acetate], the “relative ratio of repolarization rates in affected cells compared to unaffected cells” value with lymphoblasts [1] (2 μM PMA, 30 min, K+-free and K+-containing buffer, P=0.046) is listed as “significantly lower”. Besides, the “repolarization rate (with PMA/without PMA) in affected cells compared to unaffected cells” value in the experiment on lymphoblasts [1] (K+-free buffer, 2 μM PMA, t-test P=0.029) is “significantly different”.

For `C=C(CC)C(=O)c1ccc(OCC(=O)O)c(Cl)c1Cl` [ethacrynate], the “relative intensity ratio of affected cells compared to unaffected cells” value with lymphoblasts [2] (30 μM ethacrynate, 30 min, K+-free vs K+-containing buffer, t-test P=0.009) is given as “significantly higher”. Besides, the “intensity ratio (membrane potential with ethacrynate/without ethacrynate) of affected cells compared to unaffected cells” value in the experiment with lymphoblasts [2] (K+-free buffer, 30 μM ethacrynate, t-test P=0.032) was “significantly higher”. Also, the “relative intensity ratio, mean (intensity ratio with/without ethacrynate in K+-free buffer divided by that in K+-containing buffer)” value is listed as “approximately 1.04” in the experiment on lymphoblasts [2] (affected (bipolar I) cells, 30 μM ethacrynate, 30 min); “approximately 0.79” in the experiment with lymphoblasts [2] (unaffected (sibling and normal) cells, 30 μM ethacrynate, 30 min). Further, the “relative rate of repolarization in affected cells compared to unaffected cells” value in the experiment with lymphoblasts [1] (30 μM ethacrynate, 30 min, K+-free and K+-containing buffer, P=0.041) is “significantly higher”. Besides, the “mean fluorescence intensity ratio of bipolar samples compared to control samples” value in the experiment on whole blood cells [3] (30 μM ethacrynate, t-test) is listed as “significantly lower”. The “ratio of fluorescence intensity in K+-free buffer with ethacrynate to K+-containing buffer without ethacrynate, Mean” value in the experiment with whole blood cells [3] (setting [6]) was 0.780; in the experiment on whole blood cells [3] (setting [7]) it was 0.893; with whole blood cells [4] (Patient A) it was 0.766; in the experiment on whole blood cells [4] (setting [8]), 0.768; with whole blood cells [4] (setting [9]), 0.850; in the experiment with whole blood cells [4] (setting [10]) it was 0.870. Further, in the experiment with whole blood cells [4] (setting [11]), the “ratio of fluorescence intensity in K+-free buffer with ethacrynate to K+-containing buffer without ethacrynate, Mean” value is 0.898. Besides, the “ratio of fluorescence intensity in K+-free buffer with ethacrynate to K+-containing buffer without ethacrynate, Median” value in the experiment on whole blood cells [3] (setting [6]) was 0.778; in the experiment with whole blood cells [3] (setting [7]) it was 0.893; with whole blood cells [4] (Patient A), 0.763; in the experiment on whole blood cells [4] (setting [8]), 0.773; in the experiment with whole blood cells [4] (setting [9]) it was 0.850; in the experiment with whole blood cells [4] (setting [10]), 0.863. For the same compound, the “ratio of fluorescence intensity in K+-free buffer with ethacrynate to K+-containing buffer without ethacrynate, Median” value in the experiment on whole blood cells [4] (setting [11]) was determined as 0.901. For the same compound, the “fluorescence intensity ratio of bipolar samples compared to the other three groups” value in the experiment with whole blood cells [4] (blind trial, ANOVA) was “significantly lower”. Besides, the “fluorescence intensity ratio of unipolar samples compared to the other three groups” value with whole blood cells [4] (blind trial, ANOVA) was “significantly higher”.

As to `CC[C@@]1([C@@H]2O[C@@H]([C@H]3O[C@@](O)(CO)[C@H](C)C[C@@H]3C)C[C@@H]2C)CC[C@H]([C@]2(C)CC[C@]3(C[C@H](O)[C@@H](C)[C@@H]([C@@H](C)[C@@H](OC)[C@H](C)C(=O)O)O3)O2)O1` [monensin], the “intensity ratio (membrane potential with monensin/without monensin) of affected cells compared to unaffected cells” value with lymphoblasts [2] (K+-free buffer, 10 μM monensin, 30 min, t-test P=0.009) is reported as “significantly lower”. Further, the “preference for Na+ over K+” value in experiment [5] was 10 fold.

For the compound `OC[C@@H](O)[C@@H](O)[C@H](O)[C@@H](O)CO` [sorbitol], the “fluorescence intensity ratios of bipolar cells with sorbitol compared to ethacrynate” value in the experiment with whole blood cells [3] (bipolar patients, 100 mM sorbitol in K+-free buffer, whole blood) is listed as “comparable”.

These data come from US7425410B2, “Methods for diagnosing a bipolar disorder and unipolar disorder” (Free State Diagnostics, LLC, priority 2003, dated 2008).
